Reference: patent US7173014B2, “HIV-specific synthetic oligonucleotides and methods of their use” (priority 1997, dated 2007)
d = 2'-deoxy (DNA); m = 2'-O-methyl

Columns and labels:
HIV-1 IIB = assay: CPE-based inhibition of acute infection of MT-4 cells (MTT); assay type: cell-based
Protocol: CPE based infection experiments were performed using MT-4 cells (Pauwels et al. (1988) J. Virol. Meth. 20:309; Papp et al. (1997) AIDS Research and Human Retroviruses In Press). MT-4 cells were obtained from the AIDS Research and Reference Reagent Bank, Division of AIDS, NIAID, NIH contributed Dr. Richman (Pauwels et al. (1988) J. Virol. Meth. 20:309) T-lymphoid H9 (HUT-78) cells were obtained from Dr. Robert Gallo, National Cancer Institute, Bethesda, Md. (Popovic et al. (1984) Science 224:497; Gazdar et al. (1980) Blood 55:409). Cell cultures were maintained in RPMI 1640 medium (GIBCO Laboratories, Grand Island, N.Y.) supplemented with 20% (H9 cells), or 10% (MT-4 cells) heat-inactivated fetal bovine serum (Sigma Chemical Co., St. Louis, Mo.) 250 units/ml penicillin, 250 μg/ml streptomycin, 2 mM 1-glutamine, and 10 mM HEPES (N-2-hydroxyethylpiperazine-N′-2-ethanesulfonic acid) buffer (complete medium) at 37° C. in 5% CO2. HIV-1 IIB was originally obtained from Dr. Robert Gallo, National Cancer Institute (Popovic (1984) Science 224:497). Virus stocks of HIV-1 were prepared from cell-free filtered supernatant of chronically infected H9 cultures by the shaking method as previously described by Vujoie et al. (J. Infectious Diseases (1988) 157:1047).
Experiments were performed under two sets of conditions. […] The cultures were incubated for 6 days and CPE measured using the MTT dye method. […]

HIV-2 (ROD) = assay: XTT-based anti-HIV assay, HIV-2; assay type: cell-based
Excerpt: (§1) The initial experiment performed involved evaluation of Oligos 12, 32, and 41 against three laboratory strains of HIV-1 (IIIB, RF and SK1) and one strain of HIV-2 (ROD) in parallel with the positive control compound ddC in the XTT-based anti-HIV assay. All these oligonucleotides are active against both HIV-1 and HIV-2.
(§2) CEM-SS sells (AIDS Research and Reference Reagent Program, NIH) or other established human T cell lines used in these experiments were passaged in T-150 flasks for use in the assay. On the day preceding the assay, the cells were split 1:2 to assure they would be in an exponential growth phase at time of infection. On the day of assay the cells were washed twice with tissue culture medium and resuspended in fresh tissue cultures medium. Total cell and viability counting was performed using a hemacytometer and trypan blue dye exclusion. Cell viability was greater than 95% for the cells to be utilized in the assay. The cells were pelleted and resuspended at 2.5×10^4 cells per ml in tissue culture medium. Cells were added to the drug-containing plates in a volume of 50 μl.
(§3) A pretitered aliquot of virus was removed from the freezer −80° C.) and allowed to thaw slowly to room temperature in a biological safety cabinet. The virus was resuspended and diluted into tissue culture medium such that the amount of virus added to each well in a volume of 50 μl will be the amount determined to give complete cell killing at 6 days post-infection. In general the virus pools produced with the IIIB isolate of HIV required the addition of 5 μl of virus per well.
Each plate contained cell control wells (cells only), virus control wells (cells plus virus), drug toxicity control wells (cells plus drug only), drug colorimetric control wells (drug only) as well as experimental wells (drug plus cells plus virus).
After 6 days of incubation at 37° C. in a 5% CO2 incubator, the test plates were analyzed by staining with the tetrazolium dye XTT. XTT-tetrazolium is metabolized by the mitochondrial enzymes of metabolically active cells to a soluble formazan product, allowing the rapid quantitative analysis of the inhibition of HIV-induced cell killing by anti-HIV test substances. On day 6 post-infection plates were removed from the incubator and observed. The use of round bottom microtiter plates allows rapid macroscopic analysis of the activity of a given test compound by the evaluation of pellet size. The results of the macroscopic observations were confirmed and enhanced by further microscopic analysis.
XTT solution was prepared daily as a stock of 1 mg/ml in PBS. Phenazine methosulfate (PMS) solution was prepared at 15 mg/ml in PBS and stored in the dark at −20° C. XTT/PMS stock was prepared immediately before use by diluting the PMS 1:100 into PBS and adding 40 μl per ml of XTT solution. Fifty microliters of XTT/PMS was added to each well of the plate and the plate was incubated for an additional 4 hours at 37° C. Adhesive plate sealers were used in place of the lids, the sealed plate was inverted several times to mix the soluble formazan product and the plate was read spectrophotometrically at A450 nm with a Molecular Devices Vmax plate reader.

[1] = tested on: low passage, clinical strains of HIV-1; assay: Anti-HIV activity in fresh human peripheral blood mononuclear cells; assay type: cell-based; conditions: fresh human PBMC; varies from strain to strain
Protocol: In another experiment, the anti-HIV activity of Oligos 12, 32, and 41 was evaluated against a variety of low passage, clinical strains of HIV-1 in fresh human peripheral blood mononuclear cells. These strains include viruses obtained from pediatric patients attending the Children's Hospital University of Alabama at Birmingham as well as viruses representative of the various HIV-1 clades found throughout the world, shown below in TABLE 4.
Fresh human peripheral blood lymphocytes (PBL) were isolated from voluntary Red Cross donors, seronegative for HIV and HBV. Leukophoresed blood was diluted 1:1 with Dulbecco's phosphate buffered saline (PBS), layered over 14 ml of Ficoll-Hypaque density gradient in a 50 ml centrifuge tube. Tubes were then centrifuged for 30 minutes at 600×g. Banded PBLs were gently aspirated from the resulting interface and subsequently washed 2× with PBS by low speed centrifugation. After final wash, cells were enumerated by trypan blue exclusion and re-suspended at 1×10^7/ml in RPMI 1640 with 15% Fetal Bovine Serum (FBS), 2 mM L-glutamine, […] PHA-P and allowed to incubate for 48–72 hours at 37° C. After incubation, PBLs were centrifuged and reset in RPMI 1640 with 15% FBS, 2 mM L-glutamine, 100 U/ml penicillin, 100 μg/ml streptomycin, 10 μg/ml gentamycin, and 20 U/ml recombinant human IL-2. PBLs were maintained in this medium at a concentration of 1–2×10^6/ml with bi-weekly medium changes, until use in assay protocol. […]
In the standard PBL assay (MOI: 0.2), the assay was ended on day 7 following collection of cell free supernatant samples for reverse transcriptase activity assay. In the low MOI PBL assay (MOI: 0.02), supernatant samples were collected on day 6, day 11, and day 14 post-infection and analyzed for RT activity. […] Opti-Fluor O was added to each sample and incorporated radioactivity was quantified utilizing a liquid scintillation counter, (Wallac 1450 Microbetaplus, Gaithersburg, Md.).

[2] = In vivo bioavailability after a single dose, monkeys; conditions: intravenous and oral
[3] = In vivo bioavailability after a single dose, rats; conditions: intravenous and oral
[4] = tested on: monocyte-macrophage-tropic strains BaL and ADA; assay: Anti-HIV assay in fresh human monocyte-macrophages; assay type: cell-based, HIV-1
Protocol: In addition to these T-tropic strains, the activity of the compounds was also evaluated against the monocyte-macrophage strains BaL and ADA. Oligos 12 and 32 according to the invention, as well as Oligo 41 are active against low passage clinical T-tropic strains of HIV-1. The activity of the compounds varies from strain to strain. The compounds were not active against the monocyte-macrophage-tropic strains BaL and ADA.
For isolation of adherent cells, 3×10^6 non-PHA stimulated peripheral blood cells were resuspended in Hanks buffered saline (with calcium and magnesium) supplemented with 10% human AB serum. The cells were placed in a 24-well microtiter plate at 37° C. for 2 hours. Non-adherent cells were removed by vigorously washing six times. The adherent cells were cultured for 7 days in RPMI 1640 tissue culture medium with 15% fetal bovine serum. The cultures were carefully monitored for confluency during this incubation period. Infection of the cells was performed with the monocytotropic HIV-1 strains BaL or ADA and the matched pair of AZT-sensitive and AZT-resistant virus isolates. Each of these virus isolates was obtained from the NIAID AIDS Research and Reference Reagent Program. High titer pools of each of these viruses have been harvested from infected cultures of peripheral blood adherent cells and frozen in 1.0 ml aliquots at −80° C. Monocyte-macrophage monolayers were infected at an MOI of 0.1. Compounds to be evaluated in the monocyte-macrophage assay are added to the monolayers shortly before infection in order to maximize the potential for identifying active compounds.
At 2 days post-infection, the medium was decanted and the cultures washed twice with complete medium in order to remove excess virus. […] Control curves are generated in each assay to accurately quantify the amount of capsid protein in each sample. Data was obtained by spectrophotometric analysis at 450 nm using a plate reader (Molecular Devices Vmax). P24 concentrations were calculated from the optical density values by use of the Molecular Device software package Soft Max.

HIV-1 (IIIB, RF and SK1) = assay: XTT-based anti-HIV assay, laboratory strains of HIV-1; assay type: cell-based
Excerpt: as §1
as §2, with “Cells were added to the drug-containing plates in a volume of 50 μl.” left out
as §3, with “In general the virus pools produced with the IIIB isolate of HIV required the addition of 5 μl of virus per well.” left out
After 6 days of incubation at 37° C. in a 5% CO2 incubator, the test plates were analyzed by staining with the tetrazolium dye XTT. XTT-tetrazolium is metabolized by the mitochondrial enzymes of metabolically active cells to a soluble formazan product, allowing the rapid quantitative analysis of the inhibition of HIV-induced cell killing by anti-HIV test substances. […]
XTT solution was prepared daily as a stock of 1 mg/ml in PBS. […] Adhesive plate sealers were used in place of the lids, the sealed plate was inverted several times to mix the soluble formazan product and the plate was read spectrophotometrically at A450 nm with a Molecular Devices Vmax plate reader.

Substance	inhibition of HIV-1 infection (HIV-1 IIB; MT-4 cells treated during initial infection (FIG. 1))	inhibition of HIV-1 infection (HIV-1 IIB; MT-4 cells treated following initial infection, post-viral adsorption (FIG. 2))	inhibition of HIV-2-induced cell killing (HIV-2 (ROD); XTT assay (FIG. 3))	activity against low passage clinical T-tropic strains of HIV-1 [1]	bioavailability [2]	bioavailability [3]	level of activity against the HIV-2 strain ROD (HIV-2 (ROD); compared with the HIV-1 strains, XTT assay)	activity against HIV-2 (HIV-2 (ROD); strain ROD, XTT assay)	activity against monocyte-macrophage-tropic strains BaL and ADA [4]	activity against HIV-1 (HIV-1 (IIIB, RF and SK1))
4×4: 21mer phosphorothioate linked oligonucleotide, deoxyribonucleotides flanked on each side by four 2′-O-methyl ribonucleotides; SEQ ID NO:1 (UCGCACCCATCTCTCTCCUUC; sugars from the 5' end m4 d13 m4, all phosphorothioate, methylation of C not given here)	inhibition of HIV-1 infection	inhibition of HIV-1 infection	inhibit HIV-2-induced cell killing	–	–	–	–	–	–	–
UCGCACCCATCTCTCTCCUUC (chemistry not given here) [Oligo 12]	–	–	–	active	intravenously and orally bioavailable	intravenously and orally bioavailable	enhanced level of activity	active	not active	active
